Results as given in PubChem BioAssay AID1963825 (Molecular Pharmacology Branch, DTP, NCI, 2024).

Assay: Anticancer human tumor 997537-175-T-J1-PDC patient-derived colon adenocarcinoma cell line growth inhibition [POLQ]
Conditions: 997537-175-T-J1-PDC complex spheroid viability, combination with POLQ inhibitors; for IC50: curve of first compound; for viability, T/C: stronger effect = lower value; active = viability on the fitted dose curve at most 10% of control; inactive = the rest
Summary of the method: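 Growth inhibition in 3D: complex spheroids (tumor PDC, HUVEC, MSC) treated with POLQ inhibitor combinations; where Cmax unknown, highest tested concentration 10 microM, except SN-38 at 1 microM.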

[1] = second compound 0.0316 µM, first compound 0.0316 µM
[2] = second compound 0.0316 µM, first compound 0.1 µM
[3] = second compound 0.1 µM, first compound 0.0316 µM
[4] = second compound 0.1 µM, first compound 0.1 µM
[5] = second compound 0.316 µM, first compound 0.0316 µM
[6] = second compound 0.316 µM, first compound 0.1 µM
[7] = second compound 1 µM, first compound 0.0316 µM
[8] = second compound 1 µM, first compound 0.1 µM
[9] = second compound 3.16 µM, first compound 0.0316 µM
[10] = second compound 3.16 µM, first compound 0.1 µM
[11] = second compound 10 µM, first compound 0.0316 µM
[12] = second compound 10 µM, first compound 0.1 µM
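Also: luminescence signal used as a surrogate for viable cells; spheroids exposed to drugs for seven days before readout.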

CC[C@@]1(O)C(=O)OCc2c1cc1n(c2=O)Cc2cc3c(CN(C)C)c(O)ccc3nc2-1 + Cc1cccc(N(C)C(=O)C2C(O)CCN2c2nc(C)cc(C(F)(F)F)c2C#N)c1
> 0.1 µM: IC50 (second compound 0.0316 µM) | IC50 (second compound 0.1 µM) | IC50 (second compound 0.316 µM) | IC50 (second compound 1 µM) | IC50 (second compound 3.16 µM) | IC50 (second compound 10 µM)
inactive: viability, T/C (second compound 0.0316 µM, first compound 0.000316 µM) 108% | viability, T/C (second compound 0.0316 µM, first compound 0.001 µM) 102% | viability, T/C (second compound 0.0316 µM, first compound 0.00316 µM) 102% | viability, T/C (second compound 0.0316 µM, first compound 0.01 µM) 83.1% | viability, T/C [1] 87.9% | viability, T/C [2] 71.3% | viability, T/C (second compound 0.1 µM, first compound 0.000316 µM) 94.9% | viability, T/C (second compound 0.1 µM, first compound 0.001 µM) 92.4% | viability, T/C (second compound 0.1 µM, first compound 0.00316 µM) 92.6% | viability, T/C (second compound 0.1 µM, first compound 0.01 µM) 105% | viability, T/C [3] 96.2% | viability, T/C [4] 64.3% | viability, T/C (second compound 0.316 µM, first compound 0.000316 µM) 90% | viability, T/C (second compound 0.316 µM, first compound 0.001 µM) 100% | viability, T/C (second compound 0.316 µM, first compound 0.00316 µM) 107% | viability, T/C (second compound 0.316 µM, first compound 0.01 µM) 95.1% | viability, T/C [5] 103% | viability, T/C [6] 73.7% | viability, T/C (second compound 1 µM, first compound 0.000316 µM) 108% | viability, T/C (second compound 1 µM, first compound 0.001 µM) 96.7% | viability, T/C (second compound 1 µM, first compound 0.00316 µM) 97.5% | viability, T/C (second compound 1 µM, first compound 0.01 µM) 111% | viability, T/C [7] 83.1% | viability, T/C [8] 66.7% | viability, T/C (second compound 3.16 µM, first compound 0.000316 µM) 113% | viability, T/C (second compound 3.16 µM, first compound 0.001 µM) 101% | viability, T/C (second compound 3.16 µM, first compound 0.00316 µM) 101% | viability, T/C (second compound 3.16 µM, first compound 0.01 µM) 89.3% | viability, T/C [9] 89.8% | viability, T/C [10] 72% | viability, T/C (second compound 10 µM, first compound 0.000316 µM) 98% | viability, T/C (second compound 10 µM, first compound 0.001 µM) 104% | viability, T/C (second compound 10 µM, first compound 0.00316 µM) 102% | viability, T/C (second compound 10 µM, first compound 0.01 µM) 97.3% | viability, T/C [11] 82.5% | viability, T/C [12] 68.9%

CC1COCCN1c1cc(C2(S(C)(=N)=O)CC2)nc(-c2ccnc3[nH]ccc23)n1 (centres undefined) + Cc1cccc(N(C)C(=O)C2C(O)CCN2c2nc(C)cc(C(F)(F)F)c2C#N)c1
9.37 µM: IC50 (second compound 0.0316 µM)
> 10 µM: IC50 (second compound 0.1 µM) | IC50 (second compound 3.16 µM) | IC50 (second compound 10 µM)
inactive: viability, T/C [1] 97.9% | viability, T/C [2] 106% | viability, T/C (second compound 0.0316 µM, first compound 0.316 µM) 102% | viability, T/C (second compound 0.0316 µM, first compound 1 µM) 98.8% | viability, T/C (second compound 0.0316 µM, first compound 3.16 µM) 83.6% | viability, T/C (second compound 0.0316 µM, first compound 10 µM) 47.6% | viability, T/C [3] 97.5% | viability, T/C [4] 96.6% | viability, T/C (second compound 0.1 µM, first compound 0.316 µM) 101% | viability, T/C (second compound 0.1 µM, first compound 1 µM) 83.6% | viability, T/C (second compound 0.1 µM, first compound 3.16 µM) 63.5% | viability, T/C (second compound 0.1 µM, first compound 10 µM) 64.7% | viability, T/C [5] 110% | viability, T/C [6] 107% | viability, T/C (second compound 0.316 µM, first compound 0.316 µM) 90.8% | viability, T/C (second compound 0.316 µM, first compound 1 µM) 91.6% | viability, T/C (second compound 0.316 µM, first compound 3.16 µM) 57.9% | viability, T/C (second compound 0.316 µM, first compound 10 µM) 49.1% | viability, T/C [7] 106% | viability, T/C [8] 104% | viability, T/C (second compound 1 µM, first compound 0.316 µM) 80.3% | viability, T/C (second compound 1 µM, first compound 1 µM) 78.9% | viability, T/C (second compound 1 µM, first compound 3.16 µM) 44.7% | viability, T/C (second compound 1 µM, first compound 10 µM) 52.7% | viability, T/C [9] 111% | viability, T/C [10] 109% | viability, T/C (second compound 3.16 µM, first compound 0.316 µM) 98.5% | viability, T/C (second compound 3.16 µM, first compound 1 µM) 87.3% | viability, T/C (second compound 3.16 µM, first compound 3.16 µM) 78.3% | viability, T/C (second compound 3.16 µM, first compound 10 µM) 70.8% | viability, T/C [11] 88.3% | viability, T/C [12] 99.8% | viability, T/C (second compound 10 µM, first compound 0.316 µM) 86% | viability, T/C (second compound 10 µM, first compound 1 µM) 92.7% | viability, T/C (second compound 10 µM, first compound 3.16 µM) 68.5% | viability, T/C (second compound 10 µM, first compound 10 µM) 63.5%
8.26 µM: IC50 (second compound 0.316 µM)
7.19 µM: IC50 (second compound 1 µM)
